Test results published in US20160376605A1, “WHEAT PLANTS HAVING INCREASED TOLERANCE TO IMIDAZOLINONE HERBICIDES” (BASF SE, priority 2003, published 2016).

How the values were obtained:
[1] = test system: Fifteen Durum lines, each derived from a different M2 plant; test: Greenhouse Trial: all fifteen mutagenesis-derived lines; type: in vivo, Durum wheat; conditions: 100 and 160 g/ha imazamox
Protocol: (§1) Fifteen Durum lines, each derived from a different M2 plant, and two wild type durum lines were evaluated for tolerance to the imidazolinone herbicide imazamox at rates of 100 and 160 g/ha in a greenhouse trial. Evaluations of tolerance were made at 14 and 21 days after treatment. Injury was scored on a 0-9 scale, with 0 representing no injury and 9 plant death.
(§2) A rate of 35 g/ha imazamox is adequate to kill susceptible Durum wheat.

[2] = test system: susceptible durum wheat; test: Imazamox rate killing susceptible wheat; type: in vivo
Protocol: Nine M4:6 lines derived from four M2 plants (C119, C132, C137, CO12) were evaluated in a replicated trial at one location in a durum growing area in Italy. 75 g/ha of imazamox was applied to BBCH growth stage 21-25 plants. A rate of 35 g/ha would typically result in virtually 100% mortality of susceptible wheat. Percent crop response (overall injury) varied from 0 to 13% 21 days after treatment (DAT), and from 0 to 17% 43 DAT. Yield as a percent of the same line untreated varied from 85% to 102%.
(§3) All tested lines survived at both rates of herbicide treatment, whereas all plants of the wild type were killed at both rates. Based on comparison to the wild type line, all lines tested expressed considerable tolerance to the applied rates, particularly when looking at height reduction relative to untreated plots. A rate of 35 g/ha imazamox is adequate to kill susceptible durum wheat.
as §2

[3] = test system: Durum line UT15; test: Greenhouse Trial: plant injury rating, imazamox; type: in vivo, Durum wheat; conditions: 0-9 scale, 0 = no injury, 9 = plant death
Protocol: as §1

[4] = test system: Durum line UTO7; test: Greenhouse Trial: plant injury rating, imazamox; type: in vivo, Durum wheat; conditions: 0-9 scale, 0 = no injury, 9 = plant death
Protocol: as §1

[5] = test system: Durum line UT14; test: Greenhouse Trial: plant injury rating, imazamox; type: in vivo, Durum wheat; conditions: 0-9 scale, 0 = no injury, 9 = plant death
Protocol: as §1

[6] = test system: Durum line UT20; test: Greenhouse Trial: plant injury rating, imazamox; type: in vivo, Durum wheat; conditions: 0-9 scale, 0 = no injury, 9 = plant death
Protocol: as §1

[7] = test system: Durum line UT16; test: Greenhouse Trial: plant injury rating, imazamox; type: in vivo, Durum wheat; conditions: 0-9 scale, 0 = no injury, 9 = plant death
Protocol: as §1

[8] = test system: Durum line UT19; test: Greenhouse Trial: plant injury rating, imazamox; type: in vivo, Durum wheat; conditions: 0-9 scale, 0 = no injury, 9 = plant death
Protocol: as §1

[9] = test system: Durum line UTO5; test: Greenhouse Trial: plant injury rating, imazamox; type: in vivo, Durum wheat; conditions: 0-9 scale, 0 = no injury, 9 = plant death
Protocol: as §1

[10] = test system: Durum line UT12; test: Greenhouse Trial: plant injury rating, imazamox; type: in vivo, Durum wheat; conditions: 0-9 scale, 0 = no injury, 9 = plant death
Protocol: as §1

[11] = test system: Durum line UT10; test: Greenhouse Trial: plant injury rating, imazamox; type: in vivo, Durum wheat; conditions: 0-9 scale, 0 = no injury, 9 = plant death
Protocol: as §1

[12] = test system: Wild Type Line UT (durum); test: Greenhouse Trial: plant injury rating, imazamox; type: in vivo, Durum wheat; conditions: for Average plant injury rating: Wild Type Line UT, 0-9 scale, 0 = no injury, 9 = plant death
Protocol: as §1

[13] = test system: Durum line UTO8; test: Greenhouse Trial: plant injury rating, imazamox; type: in vivo, Durum wheat; conditions: 0-9 scale, 0 = no injury, 9 = plant death
Protocol: as §1

[14] = test system: Durum line UTO3; test: Greenhouse Trial: plant injury rating, imazamox; type: in vivo, Durum wheat; conditions: 0-9 scale, 0 = no injury, 9 = plant death
Protocol: as §1

[15] = test system: Durum line UTO1; test: Greenhouse Trial: plant injury rating, imazamox; type: in vivo, Durum wheat; conditions: 0-9 scale, 0 = no injury, 9 = plant death
Protocol: as §1

[16] = test system: Durum line C119; test: Greenhouse Trial: plant injury rating, imazamox; type: in vivo, Durum wheat; conditions: 0-9 scale, 0 = no injury, 9 = plant death
Protocol: as §1

[17] = test system: Durum line UT13; test: Greenhouse Trial: plant injury rating, imazamox; type: in vivo, Durum wheat; conditions: 0-9 scale, 0 = no injury, 9 = plant death
Protocol: as §1

[18] = test system: Durum line UT17; test: Greenhouse Trial: plant injury rating, imazamox; type: in vivo, Durum wheat; conditions: 0-9 scale, 0 = no injury, 9 = plant death
Protocol: as §1

[19] = test system: One hundred ten M3:4 durum lines derived from sixteen M2 plants; test: Field Trials (2): all tested M3:4 lines; type: in vivo, Durum wheat
Source text: (§4) One hundred ten M3:4 lines derived from sixteen M2 plants were screened at 71 g/ha and 160 g/ha imazamox. The number of M4 lines per M2 plant varied from one to twenty. Tolerance of M3:4 lines was compared to untreated plots of the same line as well as to treated plots of a wild-type cultivar from which some of them were derived.
as §3

[20] = test system: Durum wheat M3:4 lines derived from M2 plant UT17; test: Field Trials (2): tolerance scores at two rates of imazamox; type: in vivo; conditions: UT17, range across M3:4 lines
Source text: as §4, §3

COCc1cnc(C2=NC(C)(C(C)C)C(=O)N2)c(C(=O)O)c1 (stereo not drawn) [imazamox]
tolerance to imazamox [1]: excellent tolerance
rate adequate to kill susceptible durum wheat ([2]; imazamox application rate): 35 g/ha
mortality at 35 g/ha ([2]; read-out: mortality of susceptible wheat): ~100%
Average plant injury rating ([3]; imazamox 100 g/ha, 14 DAT): 4.3
Average plant injury rating ([3]; imazamox 100 g/ha, 21 DAT): 2.7
Average plant injury rating ([3]; imazamox 160 g/ha, 14 DAT): 4.6
Average plant injury rating ([3]; imazamox 160 g/ha, 21 DAT): 3.0
Average plant injury rating ([4]; imazamox 100 g/ha, 14 DAT): 3.7
Average plant injury rating ([4]; imazamox 100 g/ha, 21 DAT): 1.9
Average plant injury rating ([4]; imazamox 160 g/ha, 14 DAT): 4.4
Average plant injury rating ([4]; imazamox 160 g/ha, 21 DAT): 2.5
Average plant injury rating ([5]; imazamox 100 g/ha, 14 DAT): 3.1
Average plant injury rating ([5]; imazamox 100 g/ha, 21 DAT): 1.7
Average plant injury rating ([5]; imazamox 160 g/ha, 14 DAT): 4.8
Average plant injury rating ([5]; imazamox 160 g/ha, 21 DAT): 3.5
Average plant injury rating ([6]; imazamox 100 g/ha, 14 DAT): 5.0
Average plant injury rating ([6]; imazamox 100 g/ha, 21 DAT): 2.1
Average plant injury rating ([6]; imazamox 160 g/ha, 14 DAT): 5.3
Average plant injury rating ([6]; imazamox 160 g/ha, 21 DAT): 2.5
Average plant injury rating ([7]; imazamox 100 g/ha, 14 DAT): 5.4
Average plant injury rating ([7]; imazamox 100 g/ha, 21 DAT): 2.0
Average plant injury rating ([7]; imazamox 160 g/ha, 14 DAT): 4.9
Average plant injury rating ([7]; imazamox 160 g/ha, 21 DAT): 2.8
Average plant injury rating ([8]; imazamox 100 g/ha, 14 DAT): 3.3
Average plant injury rating ([8]; imazamox 100 g/ha, 21 DAT): 1.1
Average plant injury rating ([8]; imazamox 160 g/ha, 14 DAT): 3.6
Average plant injury rating ([8]; imazamox 160 g/ha, 21 DAT): 1.7
Average plant injury rating ([9]; imazamox 100 g/ha, 14 DAT): 3.0
Average plant injury rating ([9]; imazamox 100 g/ha, 21 DAT): 1.3
Average plant injury rating ([9]; imazamox 160 g/ha, 14 DAT): 3.3
Average plant injury rating ([9]; imazamox 160 g/ha, 21 DAT): 1.8
Average plant injury rating ([10]; imazamox 100 g/ha, 14 DAT): 4.8
Average plant injury rating ([10]; imazamox 100 g/ha, 21 DAT): 2.1
Average plant injury rating ([10]; imazamox 160 g/ha, 14 DAT): 5.7
Average plant injury rating ([10]; imazamox 160 g/ha, 21 DAT): 2.8
Average plant injury rating ([11]; imazamox 100 g/ha, 14 DAT): 5.8
Average plant injury rating ([11]; imazamox 100 g/ha, 21 DAT): 4.3
Average plant injury rating ([11]; imazamox 160 g/ha, 14 DAT): 6.5
Average plant injury rating ([11]; imazamox 160 g/ha, 21 DAT): 5.1
Average plant injury rating ([12]; imazamox 100 g/ha, 14 DAT): 8.9
Average plant injury rating ([12]; imazamox 100 g/ha, 21 DAT): 9.0
Average plant injury rating ([12]; imazamox 160 g/ha, 14 DAT): 9.0
Average plant injury rating ([12]; imazamox 160 g/ha, 21 DAT): 9.0
survival of wild type plants ([12]; imazamox 100 and 160 g/ha, by 21 days after treatment): killed
Average plant injury rating ([13]; imazamox 100 g/ha, 14 DAT): 4.5
Average plant injury rating ([13]; imazamox 100 g/ha, 21 DAT): 1.9
Average plant injury rating ([13]; imazamox 160 g/ha, 14 DAT): 5.5
Average plant injury rating ([13]; imazamox 160 g/ha, 21 DAT): 3.0
Average plant injury rating ([14]; imazamox 100 g/ha, 14 DAT): 4.8
Average plant injury rating ([14]; imazamox 100 g/ha, 21 DAT): 2.2
Average plant injury rating ([14]; imazamox 160 g/ha, 14 DAT): 5.2
Average plant injury rating ([14]; imazamox 160 g/ha, 21 DAT): 2.8
Average plant injury rating ([15]; imazamox 100 g/ha, 14 DAT): 4.0
Average plant injury rating ([15]; imazamox 100 g/ha, 21 DAT): 1.4
Average plant injury rating ([15]; imazamox 160 g/ha, 14 DAT): 4.1
Average plant injury rating ([15]; imazamox 160 g/ha, 21 DAT): 2.6
Average plant injury rating ([16]; imazamox 100 g/ha, 14 DAT): 4.8
Average plant injury rating ([16]; imazamox 100 g/ha, 21 DAT): 1.0
Average plant injury rating ([16]; imazamox 160 g/ha, 14 DAT): 4.9
Average plant injury rating ([16]; imazamox 160 g/ha, 21 DAT): 1.4
Average plant injury rating ([17]; imazamox 100 g/ha, 14 DAT): 4.7
Average plant injury rating ([17]; imazamox 100 g/ha, 21 DAT): 2.3
Average plant injury rating ([17]; imazamox 160 g/ha, 14 DAT): 5.8
Average plant injury rating ([17]; imazamox 160 g/ha, 21 DAT): 3.4
Average plant injury rating ([18]; imazamox 100 g/ha, 14 DAT): 4.1
Average plant injury rating ([18]; imazamox 100 g/ha, 21 DAT): 2.5
Average plant injury rating ([18]; imazamox 160 g/ha, 14 DAT): 4.7
Average plant injury rating ([18]; imazamox 160 g/ha, 21 DAT): 3.1
survival of tested lines ([19]; imazamox 71 g/ha and 160 g/ha (both rates), all tested M3:4 lines): survived
tolerated rate relative to the 35 g/ha rate that kills susceptible durum wheat ([19]; lines evaluated at 71 and 160 g/ha imazamox): almost 3 times to over 4 times
% Chlorosis ([20]; imazamox 71 g/ha, 14 DAT): 5-20%
% Height Reduction ([20]; imazamox 71 g/ha, 14 DAT): 0-20%
% Chlorosis ([20]; imazamox 71 g/ha, 30 DAT): 0%
% Height Reduction ([20]; imazamox 71 g/ha, 30 DAT): 5-20%
% Chlorosis ([20]; imazamox 160 g/ha, 14 DAT): 5-30%
% Height Reduction ([20]; imazamox 160 g/ha, 14 DAT): 0-30%
% Chlorosis ([20]; imazamox 160 g/ha, 30 DAT): 0-5%
% Height Reduction ([20]; imazamox 160 g/ha, 30 DAT): 5-30%
